Several values for one entry are separate records, joined by “and”; a condition that tells them apart may be missing. Equal values may be shown once.
Experiments:
Format in all cases: in vivo, human
[1] = tested on: Chinese patients with T2D; assay: Glycated haemoglobin A1c (HbA1c); details: 1.5 mg once weekly; for HbA1c at week 12, single patients: each line a single patient
Description: (§1) HbA1c (2200101, Bio-Rad, USA), blood glucose (05168791190, Roche Diagnostics, Germany), insulin (12017547122, Roche Diagnostics, Germany), C peptide (03184897190, Roche Diagnostics, Germany), total GLP-1 (GLP-1 [7–36] amide and its metabolite, GLP-1 [9–36] amide, 10-1278-01, Mercodia AB, Sweden) and OXM (AL-139, AnshLabs, USA) tests were performed according to the manufactures’ instruction manuals in a central laboratory (KingMed Diagnostics, Guangzhou, China). HbA1c was measured using a Bio-rad D-100 Haemoglobin Testing System (Bio-rad). Blood glucose was measured using a Roche Cobas c702 analyser (Roche Diagnostics). Insulin and C peptide were measured using a Roche […] analyser (Roche Diagnostics). GLP-1 and OXM were measured using a Tecan Infinite M Plex microplate reader (TECAN).
(§2) Standard non-compartmental pharmacokinetics methods were used to analyze IBI362 plasma concentration data using Pkanalix 2020R1 (Lixoft, Antony, France). Secondary efficacy outcomes included change from baseline to week 12 in HbA1c, fasting plasma glucose (FPG), fasting insulin levels, change from baseline to week 12 in post-mixed-meal tolerance test (post-MTT) glucose, insulin, C peptide, GLP-1 and OXM levels, as well as seven-point self-measured blood glucose (SMBG) profile.
The analyses for change from baseline in HbA1c, FPG, post-MTT glucose AUC0–4 h and body weight were performed using the mixed-effect model for repeated measures (MMRM) with least-squares means and standard error provided. The MMRM included the corresponding baseline value, treatment, visit and treatment-by-visit as fixed effects and patient as a random effect. Mean change or mean percent change from baseline were analysed using a restricted maximum likelihood (REML)‐based repeated measures approach in combination with the Newton Raphson Algorithm. The fix effect of visit was fitted as a repeated effect and an unstructured covariance matrix was used. In case of non-converge, matrix like Variance Components and Compound Symmetry will be tested in a subsequent order until model‐convergence is achieved. The Kenward-Roger degree of freedom was used in estimating fixed effects. No missing data imputation was conducted. For HbA1c, FPG and body weight, point estimate of treatment difference versus placebo and 90% CI were provided for each IBI362 dose group and the dulaglutide group, with nominal p values.

[2] = tested on: Chinese patients with T2D; assay: Change from baseline in heart rate, standard 12-lead electrocardiogram; details: 1.5 mg once weekly
Description: Primary outcomes of the study were the safety and tolerability of IBI362. Safety assessment included adverse events, physical examinations, laboratory tests (including lipase, amylase and calcitonin level measures), vital signs and 12-lead electrocardiogram. Adverse events were categorized according to the Medical Dictionary for Regulatory Activities system organ classes (SOCs) and preferred terms. Treatment-emergent adverse events (TEAEs) were monitored from the time of informed consent to the safety follow-up period. The severity of TEAEs (mild, moderate or severe) and the association between an event and the study drug were assessed by investigators based on pre-specified criteria.
CFB in heart rate (beats/min),
Fig. S1: Change from baseline in heart rate over time.
Data are from standard 12-lead electrocardiogram, measured at 1 hour before each dose in the morning from week 0 to week 11, and 168 hours after the last dose (week 12). Data are plotted as means +/- SD. CFB = change from baseline; SD = standard deviation.Source data are provided as […]
(1 picture or pasted object on this page, not shown here)

[3] = tested on: Chinese patients with T2D; assay: Mixed-meal tolerance test (MTT): C peptide; details: 1.5 mg once weekly, n=6
Description: as §1, §2
IBI362 Innovent Biologics (Suzhou) Co., Ltd. CIBI362A101
3. Standard meal test (MTT) collection measures included: insulin, C-peptide, plasma glucose, glucagon, endogenous OXM, and endogenous GLP-1. The sampling points include: fasting, 30 min, 1h, 2h, 3h and 4h.
A total of 9 mL blood will be collected from each blood collection point. See the manual of the central laboratory for the detailed operation process. Fasting state refers to fasting for 10 hours. [ The standard meal is
instant noodles. The master Kang roast beef noodles (bucket noodles) purchased by the sponsor in a unified manner are removed from the oil bag. The noodles are soaked in boiled water and then removed. The seasoning
bag is added and mixed well. The time is counted from the first bite of eating. The noodles are eaten within 10 minutes, and 200 mL of water is drunk; or the instant noodles are directly opened with 200 mL of boiled
water to ensure that the noodles are eaten and the water or soup is drunk]. Visit days when MTT test is performed: 1 day prior to Cycle 1 administration, Day 80 (D80).
4. If the patient experiences drug-related adverse events during dose escalation and meets the protocol-specified tolerance criteria, dose adjustment is required at the investigator's discretion, and a standard meal test
should be performed 48 hours after the first dose after dose adjustment.
● Test by central laboratory

[4] = Waist circumference; details: 1.5 mg once weekly, n=6
Description: (§3) Exploratory outcomes included change from baseline in body weight, waist circumference, body-mass index (BMI) and change in homeostatic model assessment of β-cell function (HOMA-β) and insulin resistance (HOMA-IR).

[5] = tested on: Chinese patients with T2D; assay: Homeostatic model assessment of insulin resistance (HOMA-IR); details: 1.5 mg once weekly, n=6
Description: as §3

[6] = Body-mass index (BMI); details: Dulaglutide group; mean
Description: as §3

Dulaglutide: open-label active reference, subcutaneously once weekly at a fixed dose of 1.5 mg [reference compound]
Percent of patients with change from baseline to week 12 in HbA1c <1.0% ([1]; n=6): 16.7% | Percent of patients with change from baseline to week 12 in HbA1c ≥1.0% and <1.5% ([1]; n=6): 50.0% | Percent of patients with change from baseline to week 12 in HbA1c ≥1.5% and <2.0% ([1]; n=6): 0.0% | Percent of patients with change from baseline to week 12 in HbA1c ≥2.0% ([1]; n=6): 33.3% | HbA1c at week 12, single patients [1]: 6.4% and 6.6% and 6.5% and 7.2% and 6.0% | HbA1c at week 12, single patients ([1]; listed as dulaglutide): 5.5% | Change from baseline in HbA1c, LS mean ([1]; week 4, n=6, MMRM): -1.03% | Change from baseline in HbA1c, LS mean ([1]; week 8, n=6, MMRM): -1.72% | patients achieving ≥1.5% reductions in HbA1c from baseline ([1]; week 12, n=6): 33.3% | Change from baseline in HbA1c, LS mean (SE) ([1]; week 12, n=6, MMRM): -1.98% | HbA1c: ETD versus placebo, LS mean (90% CI) ([1]; week 12, MMRM): −1.11% | heart rate, mean change from baseline (bound) [2]: < 10 beats per minute | C peptide during MTT, mean ([3]; week 12, 0 min): 3.04 ng/mL | C peptide during MTT, mean ([3]; week 12, 30 min): 4.18 ng/mL | C peptide during MTT, mean ([3]; week 12, 60 min): 6.16 ng/mL | C peptide during MTT, mean ([3]; week 12, 120 min): 8.34 ng/mL | C peptide during MTT, mean ([3]; week 12, 180 min): 5.85 ng/mL | C peptide during MTT, mean ([3]; week 12, 240 min): 4.53 ng/mL | Change from baseline to week 12 in waist circumference, mean [4]: -1.4 cm | Change from baseline to week 12 in waist circumference, individual ([4]; single patients): -0.5 cm and -1.5 cm and -2.6 cm and -4.9 cm and 1.5 cm | Change from baseline to week 12 in HOMA-IR, mean [5]: -1.5 | Change from baseline to week 12 in HOMA-IR, individual ([5]; single patients): 0.346 and 1.1 and -0.8 and -3.0 and -3.5 | Change from baseline to week 12 in BMI [6]: -0.19 kg/m2
